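48-hour exposure; five concentrations; linearly interpolated endpoints. Here, GI50 denotes the concentration required for 50% inhibition of growth.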 The source made the active and inactive calls. Rule as the data show it: active = GI50 up to about 1.1 µM and inactive = higher.
Experiments:
Assay in all cases: inhibition of tumour cell growth, NCI panel, 48 h
Hs-578T = test system: Hs-578T
HCT-15 = test system: HCT-15
KM12 = test system: KM12
IGROV-1 = test system: IGROV-1
A498 = test system: A498
SK-MEL-28 = test system: SK-MEL-28
UACC-62 = test system: UACC-62
OVCAR-8 = test system: OVCAR-8
OVCAR-3 = test system: OVCAR-3
MDA-MB-435 = test system: MDA-MB-435
TK-10 = test system: TK-10
SK-MEL-2 = test system: SK-MEL-2
OVCAR-4 = test system: OVCAR-4
CAKI-1 = test system: CAKI-1
RPMI-8226 = test system: RPMI-8226
U-251 = test system: U-251
ACHN = test system: ACHN
COLO 205 = test system: COLO 205
MOLT-4 = test system: MOLT-4
SNB-75 = test system: SNB-75

C[C@]12CC[C@H](O)C[C@@H]1CC[C@@H]1[C@@H]2CC[C@]2(C)[C@@H](C3=CC(=O)OC3)CC[C@]12O
GI50 (Hs-578T): 4.21 µM (inactive)
GI50 (HCT-15): 1.86 µM
GI50 (KM12): 5.81 µM (inactive)
GI50 (IGROV-1): 3.26 µM (inactive)
GI50 (A498): 4.5 µM (inactive)
GI50 (SK-MEL-28): 7.5 µM (inactive)
GI50 (UACC-62): 3.55 µM (inactive)
GI50 (OVCAR-8): 3.08 µM (inactive)
GI50 (OVCAR-3): 3.12 µM (inactive)
GI50 (MDA-MB-435): 3.03 µM (inactive)
GI50 (TK-10): 4 µM (inactive)
GI50 (SK-MEL-2): 3.33 µM (inactive)
GI50 (OVCAR-4): 2.08 µM (inactive)
GI50 (CAKI-1): 1.81 µM (inactive)
GI50 (RPMI-8226): 4.21 µM (inactive)
GI50 (U-251): 3.73 µM (inactive)
GI50 (ACHN): 0.687 µM (active)
GI50 (COLO 205): 3.18 µM (inactive)
GI50 (MOLT-4): 0.359 µM (active)
GI50 (SNB-75): 3.85 µM (inactive)

CSc1nnnc2ccccc12
GI50 (Hs-578T): > 100 µM (inactive)
GI50 (HCT-15): > 100 µM
GI50 (KM12): > 100 µM (inactive)
GI50 (IGROV-1): > 100 µM (inactive)
GI50 (A498): > 100 µM (inactive)
GI50 (SK-MEL-28): > 100 µM (inactive)
GI50 (UACC-62): > 100 µM (inactive)
GI50 (OVCAR-8): > 100 µM (inactive)
GI50 (OVCAR-3): > 100 µM (inactive)
GI50 (MDA-MB-435): > 100 µM (inactive)
GI50 (TK-10): > 100 µM (inactive)
GI50 (SK-MEL-2): > 100 µM (inactive)
GI50 (OVCAR-4): > 100 µM (inactive)
GI50 (CAKI-1): > 100 µM (inactive)
GI50 (RPMI-8226): > 100 µM (inactive)
GI50 (U-251): > 100 µM (inactive)
GI50 (ACHN): > 100 µM (inactive)
GI50 (COLO 205): > 100 µM (inactive)
GI50 (MOLT-4): > 100 µM (inactive)
GI50 (SNB-75): > 100 µM (inactive)

O=C1C(=C(I)I)c2ccccc2-c2ccccc21
GI50 (Hs-578T): 7.83 µM (inactive)
GI50 (HCT-15): 2.47 µM
GI50 (KM12): 12 µM (inactive)
GI50 (IGROV-1): 6.07 µM (inactive)
GI50 (A498): 16.6 µM (inactive)
GI50 (SK-MEL-28): 2.59 µM (inactive)
GI50 (UACC-62): 4.52 µM (inactive)
GI50 (OVCAR-8): 2.59 µM (inactive)
GI50 (OVCAR-3): 1.74 µM (inactive)
GI50 (MDA-MB-435): 2.24 µM (inactive)
GI50 (TK-10): 1.88 µM (inactive)
GI50 (SK-MEL-2): 6.31 µM (inactive)
GI50 (OVCAR-4): 2.98 µM (inactive)
GI50 (CAKI-1): 2.82 µM (inactive)
GI50 (RPMI-8226): 0.53 µM (active)
GI50 (U-251): 5.45 µM (inactive)
GI50 (ACHN): 2.32 µM (inactive)
GI50 (COLO 205): 1.56 µM (inactive)
GI50 (MOLT-4): 0.883 µM (active)
GI50 (SNB-75): 2.58 µM (inactive)

O=[N+]([O-])c1ccc2nc(-c3ccccn3)c(-c3ccccn3)nc2c1
GI50 (Hs-578T): > 100 µM (inactive)
GI50 (HCT-15): 43 µM
GI50 (KM12): > 100 µM (inactive)
GI50 (IGROV-1): 94.6 µM (inactive)
GI50 (A498): > 100 µM (inactive)
GI50 (SK-MEL-28): > 100 µM (inactive)
GI50 (UACC-62): 44.5 µM (inactive)
GI50 (OVCAR-8): 94 µM (inactive)
GI50 (OVCAR-3): 29.4 µM (inactive)
GI50 (MDA-MB-435): > 100 µM (inactive)
GI50 (TK-10): > 100 µM (inactive)
GI50 (SK-MEL-2): > 100 µM (inactive)
GI50 (OVCAR-4): > 100 µM (inactive)
GI50 (CAKI-1): > 100 µM (inactive)
GI50 (RPMI-8226): > 100 µM (inactive)
GI50 (U-251): > 100 µM (inactive)
GI50 (ACHN): 80 µM (inactive)
GI50 (COLO 205): 30.5 µM (inactive)
GI50 (MOLT-4): > 100 µM (inactive)
GI50 (SNB-75): > 100 µM (inactive)

CC(=O)C(=[N+]=[N-])C(=O)N1CCOC1=O
GI50 (Hs-578T): > 10 µM (inactive)
GI50 (HCT-15): > 10 µM
GI50 (KM12): > 10 µM (inactive)
GI50 (IGROV-1): > 10 µM (inactive)
GI50 (A498): > 10 µM (inactive)
GI50 (SK-MEL-28): > 10 µM (inactive)
GI50 (UACC-62): > 10 µM (inactive)
GI50 (OVCAR-8): > 10 µM (inactive)
GI50 (OVCAR-3): > 10 µM (inactive)
GI50 (MDA-MB-435): > 10 µM (inactive)
GI50 (TK-10): > 10 µM (inactive)
GI50 (SK-MEL-2): > 10 µM (inactive)
GI50 (OVCAR-4): > 10 µM (inactive)
GI50 (CAKI-1): > 10 µM (inactive)
GI50 (RPMI-8226): > 10 µM (inactive)
GI50 (U-251): > 10 µM (inactive)
GI50 (ACHN): > 10 µM (inactive)
GI50 (COLO 205): > 10 µM (inactive)
GI50 (MOLT-4): > 10 µM (inactive)
GI50 (SNB-75): > 10 µM (inactive)
